The record followed here is patent US20240140938A1, “PREPARATION OF TETRAHYDROINDAZOLE DERIVATIVES AS NOVEL DIACYLGLYCERIDE O-ACYLTRANSFERASE 2 INHIBITORS” (MERCK SHARP & DOHME LLC, priority 2020, published 2024).

Chain of human DGAT2 (hDGAT2) (Q96PD7 whole entry): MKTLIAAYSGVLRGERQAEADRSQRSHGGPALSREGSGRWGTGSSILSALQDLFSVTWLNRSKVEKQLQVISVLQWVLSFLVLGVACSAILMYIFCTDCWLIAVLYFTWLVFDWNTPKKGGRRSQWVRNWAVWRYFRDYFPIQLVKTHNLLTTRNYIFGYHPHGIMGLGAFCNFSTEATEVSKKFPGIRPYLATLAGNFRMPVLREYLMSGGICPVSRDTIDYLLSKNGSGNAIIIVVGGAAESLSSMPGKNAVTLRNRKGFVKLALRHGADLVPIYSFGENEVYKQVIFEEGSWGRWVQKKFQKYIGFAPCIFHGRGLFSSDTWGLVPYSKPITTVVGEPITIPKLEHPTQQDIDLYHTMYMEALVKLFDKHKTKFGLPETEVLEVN

This assay has as its target human DGAT2 (hDGAT2) (Homo sapiens (Human), UniProt Q96PD7). Put plainly: DGAT2 Enzymatic Activity Assay. The format is biochemical. The note with it: hDGAT2 Sf-9 membrane prep; 13C18-triolein product by LC/MS/MS; 25 μM diolein, 5 μM 13C oleoyl-CoA. Summed up:
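Enzyme source was membrane fractions from Sf-9 cells infected with untagged hDGAT2 baculovirus. Reactions ran at room temperature, and product 13C18-triolein was quantified by LC/MS/MS against a 13C21-triolein internal standard. % inhibition was normalised to high and low controls, and IC50 derived from it.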
Turning to `CC(C)n1nc(-c2cccc(C3(C(F)(F)F)CC3)c2)c2c1C[C@H](C(=O)NC1(C)CS(=O)(=O)C1)CC2` [Example 90, (R)-1-isopropyl-N-(3-methyl-1,1-dioxidothietan-3-yl)-3-(3-(1-(trifluoromethyl)cyclopropyl)phenyl)-4,5,6,7-tetrahydro-1H-indazole-6-carboxamide], the IC50 (commonly the concentration needed to halve the response being measured) was greater than 10000 nM.
As for `CC1(NC(=O)C2COc3c(-c4cccc(OC(F)F)c4)nn(-c4ccc(F)cn4)c3C2)CS(=O)(=O)C1` (racemic) [Example 119, 3-(3-(difluoromethoxy)phenyl)-1-(5-fluoropyridin-2-yl)-N-(3-methyl-1,1-dioxidothietan-3-yl)-1,5,6,7-tetrahydropyrano[3,2-c]pyrazole-6-carboxamide], half-maximal inhibition (IC50) required 0.33 nM. This counts as sub-nanomolar.
Take `CC(C)n1nc(-c2cccc(OC(F)F)c2)c2c1C[C@H](C(=O)NCc1cccnc1)CC2` [Example 62, (R)-3-(3-(difluoromethoxy)phenyl)-1-isopropyl-N-(pyridin-3-ylmethyl)-4,5,6,7-tetrahydro-1H-indazole-6-carboxamide]: the IC50 was found to be 8190 nM.
As for `CC(C)n1nc(-c2cc(OC(F)F)ccc2F)c2c1CC(C(=O)N[C@]1(C)CCS(=O)(=O)C1)CO2` (stereo partly drawn) [Example 123, 3-(5-(difluoromethoxy)-2-fluorophenyl)-1-isopropyl-N-((R)-3-methyl-1,1-dioxidotetrahydrothiophen-3-yl)-1,5,6,7-tetrahydropyrano[3,2-c]pyrazole-6-carboxamide], it took 24.3 nM to reach half-maximal inhibition (IC50).
As for `CC(C)(N)c1cccc(-c2nn(-c3ccc(F)cc3)c3c2CC[C@@H](C(=O)N[C@@]2(C)CCS(=O)(=O)C2)C3)c1` [Example 18, (R)-3-(3-(2-aminopropan-2-yl)phenyl)-1-(4-fluorophenyl)-N-((S)-3-methyl-1,1-dioxidotetrahydrothiophen-3-yl)-4,5,6,7-tetrahydro-1H-indazole-6-carboxamide], the IC50 was greater than 10000 nM.
The compound `CC(n1nc(-c2cc(OCC(F)(F)F)ncc2F)c2c1C[C@H](C(=O)NC1(C)CCS(=O)(=O)CC1)CC2)C(C)(C)O` (single isomer, unassigned) [Example 107a] displayed an IC50 of 3.9 nM.
Next, `CC(C)(NC(=O)[C@@H]1CCc2c(-c3cccc(OC(F)F)c3)nn(C3CCOCC3)c2C1)c1ccc(C(F)(F)F)nc1` [Example 27, (R)-3-(3-(difluoromethoxy)phenyl)-1-(tetrahydro-2H-pyran-4-yl)-N-(2-(6-(trifluoromethyl)pyridin-3-yl)propan-2-yl)-4,5,6,7-tetrahydro-1H-indazole-6-carboxamide]: 128 nM.
Take `CC1(NC(=O)[C@@H]2CCc3c(-c4cccc(OC(F)F)c4)nn(-c4ncc(F)cc4F)c3C2)CS(=O)(=O)C1` [Example 9, (R)-3-(3-(difluoromethoxy)phenyl)-1-(3,5-difluoropyridin-2-yl)-N-(3-methyl-1,1-dioxidothietan-3-yl)-4,5,6,7-tetrahydro-1H-indazole-6-carboxamide]: the IC50 came out at 10.2 nM.
Then `CC(C)n1nc(-c2cc(OC(F)(F)F)cnc2Cl)c2c1C[C@H](C(=O)NC1(C)CS(=O)(=O)C1)CC2` [Example 88, (R)-3-(2-chloro-5-(trifluoromethoxy)pyridin-3-yl)-1-isopropyl-N-(3-methyl-1,1-dioxidothietan-3-yl)-4,5,6,7-tetrahydro-1H-indazole-6-carboxamide], with 275 nM; and `CC(n1nc(-c2cc(OC(F)F)ccc2F)c2c1C[C@H](C(=O)NC1(C)CS(=O)(=O)C1)CC2)C(C)(C)O` (single isomer, unassigned) [Example 110a], with 30.8 nM; and `CC(C)n1nc(-c2cc(OCC(F)(F)F)ncc2F)c2c1C[C@H](C(=O)NC1(C)CCS(=O)(=O)CC1)CC2` [Example 45, (R)-3-(5-fluoro-2-(2,2,2-trifluoroethoxy)pyridin-4-yl)-1-isopropyl-N-(4-methyl-1,1-dioxidotetrahydro-2H-thiopyran-4-yl)-4,5,6,7-tetrahydro-1H-indazole-6-carboxamide], with 18.4 nM.
Next, `Cc1ncc(OC(F)F)cc1-c1nn(C(C)C)c2c1CC[C@@H](C(=O)NC1(C)CC(F)(F)C1)C2` [Example 89, (R)-N-(3,3-difluoro-1-methylcyclobutyl)-3-(5-(difluoromethoxy)-2-methylpyridin-3-yl)-1-isopropyl-4,5,6,7-tetrahydro-1H-indazole-6-carboxamide]: 318 nM; `CC1(NC(=O)[C@@H]2CCc3c(-c4cc(OC(F)F)ccc4F)nn(C4CCCC4O)c3C2)CS(=O)(=O)C1` (single isomer, unassigned) [Example 114a]: 44.5 nM.
